Legend:
Experiment in all cases: relative viability (nuclei count vs DMSO), 5 days (fraction); higher = more cells survive
BAM7 + Lapatinib = compound: CCOC1=CC=CC=C1N=NC2=C(NN(C2=O)C3=NC(=CS3)C4=CC=CC=C4)C [BAM7] + CS(=O)(=O)CCNCc1ccc(-c2ccc3ncnc(Nc4ccc(OCc5cccc(F)c5)c(Cl)c4)c3c2)o1 [Lapatinib] (partner 2 µM)
Procedure, shortened: (§1)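 Lung cancer cell lines were pin-tool dosed in 1536-well plates on the day after seeding, with either a lone drug or a fixed anchor-drug dose plus five library-drug doses (not always all listed) in √10 steps. Nuclei were counted on 4× images after 5 days. Relative viability is the ratio of treated-well to vehicle-well nuclei counts, with each value a median of duplicate plates.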

[1] = compound: CCn1c(-c2nonc2N)nc2c(C#CC(C)(C)O)ncc(OC[C@H]3CCCNC3)c21 + CC(=O)c1c(C)c2cnc(Nc3ccc(N4CCNCC4)cn3)nc2n(C2CCCC2)c1=O [Palbociclib] (partner 0.5 µM)
Procedure, shortened: as §1

[2] = compound: CCn1c(-c2nonc2N)nc2c(C#CC(C)(C)O)ncc(OC[C@H]3CCCNC3)c21 + N=C(N)NC(=N)NCCc1ccccc1 [Phenformin] (partner 250 µM)
Procedure, shortened: as §1

[3] = compound: CCn1c(-c2nonc2N)nc2c(C#CC(C)(C)O)ncc(OC[C@H]3CCCNC3)c21 + CCNC(=O)c1noc(-c2cc(C(C)C)c(O)cc2O)c1-c1ccc(CN2CCOCC2)cc1 [Luminespib] (partner 0.01 µM)
Procedure, shortened: as §1

Row | Cell Line | relative viability (BAM7 + Lapatinib; first compound 0.5 µM) | relative viability (BAM7 + Lapatinib; first compound 5 µM) | relative viability (BAM7 + Lapatinib; first compound 15.81 µM) | relative viability (BAM7 + Lapatinib; first compound 50 µM) | relative viability ([1]; first compound 0.01 µM) | relative viability ([1]; first compound 0.03162 µM) | relative viability ([1]; first compound 0.1 µM) | relative viability ([1]; first compound 0.3162 µM) | relative viability ([1]; first compound 1 µM) | relative viability ([2]; first compound 0.01 µM) | relative viability ([2]; first compound 0.03162 µM) | relative viability ([2]; first compound 0.1 µM) | relative viability ([2]; first compound 0.3162 µM) | relative viability ([2]; first compound 1 µM) | relative viability ([3]; first compound 0.01 µM) | relative viability ([3]; first compound 0.03162 µM) | relative viability ([3]; first compound 0.1 µM) | relative viability ([3]; first compound 0.3162 µM) | relative viability ([3]; first compound 1 µM)
1 | COR-L 105 | 0.357 | 0.355 | 0.382 | 0.44 | 0.401 | 0.37 | 0.419 | 0.39 | 0.42 | 0.407 | 0.516 | 0.468 | 0.417 | 0.463 | 0.621 | 0.868 | 0.709 | 0.775 | 0.923
2 | NCI-H1355 | 0.972 | 1.01 | 0.986 | 1.02 | 0.408 | 0.367 | 0.406 | 0.382 | 0.382 | 0.488 | 0.458 | 0.417 | 0.434 | 0.483 | 0.716 | 0.688 | 0.746 | 0.695 | 0.693
3 | H3255 | 0.251 | 0.242 | 0.247 | 0.278 | 0.291 | 0.303 | 0.345 | 0.296 | 0.297 | 0.403 | 0.406 | 0.342 | 0.338 | 0.329 | 0.84 | 0.754 | 0.838 | 0.771 | 0.958
4 | NCI-H1993 | 0.76 | 0.915 | 0.763 | 0.906 | 0.55 | 0.642 | 0.628 | 0.659 | 0.542 | 0.485 | 0.47 | 0.5 | 0.478 | 0.495 | 0.84 | 0.728 | 0.739 | 0.645 | 0.686
5 | NCI-H1734 | 1.1 | 1.23 | 0.974 | 1.11 | 0.375 | 0.332 | 0.306 | 0.303 | 0.33 | 0.365 | 0.425 | 0.335 | 0.323 | 0.267 | 0.189 | 0.194 | 0.177 | 0.145 | 0.219
6 | HOP-62 | 1.09 | 1.27 | 0.969 | 0.986 | 0.414 | 0.436 | 0.308 | 0.383 | 0.395 | 0.662 | 0.687 | 0.635 | 0.649 | 0.687 | 0.903 | 0.878 | 0.913 | 0.876 | 0.967
7 | LOU-NH91 | 0.749 | 0.822 | 0.767 | 0.819 | 0.511 | 0.541 | 0.527 | 0.535 | 0.479 | 0.683 | 0.566 | 0.686 | 0.607 | 0.635 | 0.34 | 0.365 | 0.374 | 0.319 | 0.316
8 | NCI-H2228 | 1.31 | 1.19 | 1.05 | 1.1 | 0.686 | 0.752 | 0.821 | 0.574 | 0.467 | 0.363 | 0.36 | 0.298 | 0.277 | 0.204 | 0.0991 | 0.159 | 0.145 | 0.113 | 0.123
9 | PC-14 | 0.334 | 0.324 | 0.309 | 0.351 | 0.581 | 0.543 | 0.542 | 0.476 | 0.516 | 0.448 | 0.519 | 0.597 | 0.531 | 0.609 | 0.173 | 0.112 | 0.158 | 0.107 | 0.148
10 | NCI-H1437 | 0.686 | 0.514 | 0.51 | 0.68 | 0.295 | 0.297 | 0.338 | 0.281 | 0.359 | 0.331 | 0.34 | 0.293 | 0.239 | 0.306 | 1.07 | 1.13 | 1.21 | 1.09 | 1.17
11 | NCI-H460 | 0.904 | 1.13 | 0.953 | 1.03 | 0.146 | 0.0929 | 0.18 | 0.127 | 0.139 | 0.518 | 0.561 | 0.523 | 0.495 | 0.541 | 0.0307 | 0.0313 | 0.0273 | 0.031 | 0.0375
12 | NCI-H1666 | 0.47 | 0.7 | 0.564 | 0.754 | 0.615 | 0.647 | 0.645 | 0.626 | 0.636 | 0.614 | 0.539 | 0.539 | 0.987 | 0.534 | 0.948 | 0.933 | 1.05 | 0.959 | 1.04
13 | NCI-H1651 | 0.747 | 0.756 | 0.831 | 0.858 | 0.518 | 0.528 | 0.505 | 0.49 | 0.56 | 0.353 | 0.387 | 0.382 | 0.28 | 0.337 | 0.969 | 0.875 | 0.811 | 0.755 | 0.953
14 | NCI-H1755 | 1.06 | 1.13 | 1.04 | 0.979 | 0.451 | 0.514 | 0.463 | 0.437 | 0.422 | 0.604 | 0.606 | 0.614 | 0.613 | 0.605 | 0.455 | 0.519 | 0.556 | 0.513 | 0.423
15 | NCI-H661 | 0.704 | 0.494 | 0.41 | 0.54 | 0.446 | 0.399 | 0.39 | 0.389 | 0.372 | 0.277 | 0.259 | 0.265 | 0.145 | 0.239 | 0.89 | 0.95 | 0.947 | 0.965 | 0.995
16 | HARA | 0.68 | 0.777 | 0.682 | 0.793 | 0.303 | 0.344 | 0.269 | 0.268 | 0.209 | 0.361 | 0.445 | 0.426 | 0.451 | 0.495 | 0.942 | 0.222 | 0.666 | 0.585 | 0.603
17 | NCI-H23 | 1.48 | 1.1 | 0.997 | 1.26 | 0.44 | 0.481 | 0.52 | 0.575 | 0.55 | 0.729 | 0.783 | 0.817 | 0.8 | 0.781 | 0.235 | 0.202 | 0.242 | 0.219 | 0.237

Reference: the supplement of paper PMC10307832
